One data set has as its target T1, CYP2D6 (Homo sapiens, UniProt P10635).
T1 construct: each reaction was performed with 0.5 mg/mL pooled human liver microsomes; tissue Corning Gentest BD UltraPool HLM 150; host or cells: pooled human liver microsomes
The experiment in a line: CYP inhibition, cocktail of probe substrates in pooled human liver microsomes: dextromethorphan O-demethylation. The class given is in vitro ADME. To be noted: pooled HLMs, dextromethorphan O-deethylation, substrate 5 μM. A general note: Liver microsomes are vesicles of endoplasmic reticulum, rich in cytochrome P450 enzymes.

Another data set has as its target T2, CYP1A2 (Homo sapiens, UniProt P05177).
T2 construct: tissue Corning Gentest BD UltraPool HLM 150; host or cells: pooled human liver microsomes
T2 sequence (P05177 1-516): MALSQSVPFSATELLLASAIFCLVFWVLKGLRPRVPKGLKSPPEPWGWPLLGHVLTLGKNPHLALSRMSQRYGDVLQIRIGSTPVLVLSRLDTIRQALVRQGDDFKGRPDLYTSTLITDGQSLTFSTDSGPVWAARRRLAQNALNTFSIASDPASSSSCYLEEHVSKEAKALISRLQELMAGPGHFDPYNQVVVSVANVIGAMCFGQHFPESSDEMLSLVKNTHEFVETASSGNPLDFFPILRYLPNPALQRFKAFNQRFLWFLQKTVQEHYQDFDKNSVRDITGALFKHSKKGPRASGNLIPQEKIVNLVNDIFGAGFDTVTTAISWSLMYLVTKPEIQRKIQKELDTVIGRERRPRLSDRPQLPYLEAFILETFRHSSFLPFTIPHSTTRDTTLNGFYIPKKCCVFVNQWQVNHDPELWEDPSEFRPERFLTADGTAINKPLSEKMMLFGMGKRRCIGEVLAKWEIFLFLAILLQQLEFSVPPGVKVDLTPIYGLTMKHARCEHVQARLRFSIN
The experiment in a line: CYP inhibition, cocktail of probe substrates in pooled human liver microsomes: phenacetin O-deethylation. The class given is in vitro ADME. The note with it: for IC50: pooled HLMs, substrate 80 μM. On the procedure:
All incubations were performed in duplicate, and data are presented as means. Briefly, each reaction was performed with 0.5 mg/mL pooled human liver microsomes in a final incubation volume of 0.1 mL. The incubation medium consisted of 0.1 M potassium phosphate buffer (pH 7.4) containing cocktail of probe substrates and a NADPH-generating system (NGS) of 0.1 M glucose 6-phosphate, 10 mg/mL β-NADPH, and 1.0 U/mL glucose-6-phosphate dehydrogenase. To investigate the IC50 of bakuchicin during CYP1A inhibition, bakuchicin (at final concentrations of 0–25 μM) was incubated without preincubation. In addition, the mixture with bakuchicin was preincubated for 15 min without the probe substrate cocktail in the presence or absence of 1 mM β-NADPH. After the reaction was initiated by adding the NGS for 60 min, incubated samples were terminated by adding 100 μL acetonitrile containing 0.1% formic acid and 2.5 μL of internal standard solution (5 μM reserpine) in methanol. After mixing and centrifuging at 13,000 ×g for 12 min, a 5 μL aliquot was injected onto a C18 column for LC-MS/MS analysis.
All measurements were performed using LC-MS/MS in multiple reaction monitoring mode. LC-MS/MS was performed using an Accela™ LC system coupled to a TSQ Vantage triple quadrupole mass spectrometer (Thermo Fisher Scientific Inc., USA) equipped with a HESI-II Spray source. Electrospray ionization was performed in positive mode at a spray voltage of 3,500 V (except for the detection of 6-hydroxy chlorzoxazone). Nitrogen was used as a sheath and auxiliary gas at optimum values of 45 and 20 (arbitrary units), respectively. Vaporizer and capillary temperatures were 150 and 300°C, respectively. For LC analysis an Inertsil® ODS-2 (3 μm, 2.1 × 150 mm) column (GL Sciences Inc., Torrance, CA) was used. The mobile phase consisted of acetonitrile (mobile phase A) and water (mobile phase B), both of which contained 0.1% formic acid, at a flow rate of 0.22 mL/min at 30°C.
All incubations were performed in duplicate, and data are presented as means. IC50 values (the concentration of inhibitor causing a 50% inhibition in enzyme activity) were obtained using percent activity versus log[I] concentration plots. Kinetic parameters were estimated by curve fitting using SigmaPlot (version 12.0, Systat Software, Inc.).

Setting [1] is: 15 min preincubation with NADPH, read-out: IC50 With preincubation with NADPH.
Setting [2] is: 15 min preincubation without NADPH, read-out: IC50 With preincubation Without NADPH.
Where [3] appears, read: without preincubation, read-out: IC50 Without preincubation.

Like-named read-outs stand apart in the source and are kept apart here.

T1 sequence (P10635 whole entry): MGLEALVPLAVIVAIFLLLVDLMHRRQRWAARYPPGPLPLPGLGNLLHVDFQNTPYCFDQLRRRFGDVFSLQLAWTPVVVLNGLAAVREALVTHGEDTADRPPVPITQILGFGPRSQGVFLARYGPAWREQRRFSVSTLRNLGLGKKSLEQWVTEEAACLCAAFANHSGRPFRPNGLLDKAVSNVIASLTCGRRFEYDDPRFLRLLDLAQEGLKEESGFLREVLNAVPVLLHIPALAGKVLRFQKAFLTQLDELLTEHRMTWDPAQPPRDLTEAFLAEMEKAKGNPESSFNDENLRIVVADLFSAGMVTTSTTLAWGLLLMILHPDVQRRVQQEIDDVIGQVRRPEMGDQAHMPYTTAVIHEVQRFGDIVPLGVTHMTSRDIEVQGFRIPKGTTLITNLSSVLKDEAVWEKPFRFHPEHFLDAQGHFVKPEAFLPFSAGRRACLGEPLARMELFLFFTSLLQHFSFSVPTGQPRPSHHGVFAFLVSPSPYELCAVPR

Take `O=c1ccc2c(ccc3ccoc32)o1` [Bakuchicin]: the IC50 on CYP2D6 (setting [1]) turned out to be 15.1 µM; on CYP2D6 (setting [2]) it was 21.7 µM; at CYP2D6 (setting [3]), 18.2 µM; on CYP1A2 (setting [1]) it was 0.22 µM; on CYP1A2 (setting [2]) it was 0.22 µM; on CYP1A2 (setting [3]), 0.43 µM. Moreover, the “time dependence of CYP1A inhibition” value at CYP1A2 (HLMs, preincubation time 0-20 min at 37°C) was “not time-dependent inhibition”.

Broadly, the IC50 is the concentration at which inhibition is half-maximal.

(Values after publication PMC4763008, “Selective Inhibition of Bakuchicin Isolated from Psoralea corylifolia on CYP1A in Human Liver Microsomes” (Evidence-based Complementary and Alternative Medicine : eCAM, 2016).)
